Laboratory results: patent US12275733B2, “Substituted pyrido[3,4-b]indoles for the treatment of cartilage disorders” (Sanofi, priority 2016, dated 2025)

Test system: ATDC5 cells
Experiment: Chondrogenesis activity assay in ATDC5 cells (collagen type II induction, immunofluorescence)
Assay type: cell-based, mouse
Details: Mus musculus; for EC50: collagen type II induction in ATDC5 cells, concentration reaching 50% of maximum induction; for Emax: maximum percent induction of collagen type II relative to internal reference compound at 10 μM, ATDC5 cells
Description: A) Chondrogenesis Activity Assay in ATDC5 Cells
The chondrogenic potential of the compounds of the invention was determined using clonal mouse chondrogenic ATDC5 cells (T. Atsumi et al., Cell Differ. Dev. 1990, 30, 109-116). ATDC5 cells are derived from mouse embryonic AT805 teratocarcinoma cells and are used frequently to study the multistep chondrogenic differentiation process from precursor cells into chondrocytes (C. Shukunami et al., Exp. Cell Res. 1998, 241, 1-11; H. Aklyami et al., J. Bone Miner. Res. 1996, 11, 22-28; H. Akiyami et al., Biochem. Biophys. Res. Commun. 1997, 235, 142-147; C. Shukunami et al., J. Cell Biol. 1996, 133, 457-468; C. Shukunami et al., J. Bone Miner. Res. 1997, 12, 1174-1188). Undifferentiated ATDC5 cells grow in vitro until confluence, showing a fibroblast-like morphology. In the presence of insulin, cells undergo transient condensation and form numerous nodular structures (cartilage nodules). The cartilagenous nature of these nodules was shown by Alcian Blue staining as evidence of the production of proteoglycan (aggrecan) and collagen type II expression (by expression analysis), both molecular markers of chondrocytes (C. Shukunami et al., J. Cell Biol. 1996, 133, 457-468).
Chondrogenic differentiation of ATDC5 cells into chondrocytes by the compounds of the invention was determined by measuring the induction of type II collagen protein as a marker of chondrocytes, a structural component of the extracellular matrix which constitutes more than 80% of cartilage mass (D. R. Eyre, Clin. Orthop. Relat. Res. 2004, 427 Suppl, S118-S122). ATDC5 cells were obtained from RIKEN and cultured as monolayer in basal culture medium (Dulbecco's Modified Eagle Medium/Nutrient Mixture F-12 (DMEM/F12, Invitrogen, #31331-093) supplemented with 10 μg/ml Transferrin (Roche, #10652 202001), 3×10E−8 M sodium seienite (Sigma, #S-5261) and 5% Fetal Calf Serum (FCS Gold, PAA, #A15-251)), at 37° C., and 5% CO2 in plastic flasks of 75 cm^2 or 300 cm^2 subconfluently for propagation. ATDC5 cells were harvested and resuspended in differentiation culture medium that consisted of basal culture medium complemented with 10 μg/ml insulin (Sigma, #19278), to initiate chondrogenic differentiation. For studying the effect of test compounds, the ATDC5 cells were plated in 96-well plates (3.0×10E4 cells per well in 200 μl of differentiation culture medium). Test compounds dissolved in DMSO were added to yield increasing compound concentrations, typically from 40 nM to 10 μM, and a final DMSO concentration of 0.1%. On each 96-well plate, control wells containing no test compound but the same concentration of DMSO, i.e. untreated cells, were included and used as reference for the determination of the effect of the test compounds on the cells, and wells containing an internal reference compound at a concentration of 10 μM were included and used as positive control and for standardizing the results. Cells in the wells were incubated for 4 days at 37° C., and 5% CO2, followed by quantification of intracellular collagen type II.
Quantification of collagen type II in the ATDC5-cells was done by immunofluorescence staining of collagen type II, and fluorescence intensity was measured using a cellular high content imaging system (ImageXpress, Molecular Device). For immunofluorescence staining of intracellular collagen, medium was removed after compound incubation and cells were fixed with 200 μl/well methanol/water (95%/5%). Cells were permeabilized in 200 μl/well phosphate-buffered saline (PBS) containing 0.2% Triton X100 for 15 min and, after removal of the solution, blocked for 30 min with 200 μl/well PBS/0.2% Triton X100 containing 1% bovine serum albumin (BSA) to avoid unspecific binding. After the blocking step, the solution was removed and collagen type II staining solution was added. […]

Row | SMILES | EC50 [nM] | Emax [%]
1 | CCn1c2c(-c3cnn(CCO)c3)cc(Cl)cc2c2ccnc(C)c21 [Example 44, 2-[4-(6-Chloro-9-ethyl-1-methyl-9H-pyrido[3,4-b]indol-8-yl)-pyrazol-1-yl]-ethanol] | 670 | > 80
2 | Cc1nccc2c3cc(Cl)cc(-c4ccc(C#N)nc4)c3n(CC3CC3)c12 [Example 47, 5-(6-Chloro-9-cyclopropylmethyl-1-methyl-9H-pyrido[3,4-b]indol-8-yl)-pyridine-2-carbonitrile] | > 10000 | 20 to 50
3 | Cc1cc(-c2cc(Cl)cc3c4ccnc(C)c4n(CC4CC4)c23)cnc1C#N [Example 48, 5-(6-Chloro-9-cyclopropylmethyl-1-methyl-9H-pyrido[3,4-b]indol-8-yl)-3-methyl-pyridine-2-carbonitrile] | 41 | < 20
4 | Cc1nccc2c3cc(Cl)cc(-c4cnc5c(c4)OCCN5C)c3n(CC3CC3)c12 [Example 49, 6-Chloro-9-cyclopropymethyl-1-methyl-8-(4-methyl-3,4-dihydro-2H-pyrido[3,2-b][1,4]oxazin-7-yl)-9H-pyrido[3,4-b]indole] | 41 | < 20
5 | Cc1nccc2c3cc(Cl)cc(-c4ccc(N5CCCC5)nc4)c3n(CC3CC3)c12 [Example 50, 6-Chloro-9-cyclopropylmethyl-1-methyl-8-(6-pyrrolidin-1-ylpyridin-3-yl)-9H-pyrido[3,4-b]indole] | 130 | < 20
6 | Cc1nccc2c3cc(Cl)cc(-c4ccc(N5CCN(C)CC5)nc4)c3n(CC3CC3)c12 [Example 51, 6-Chloro-9-cyclopropylmethyl-1-methyl-8-[6-(4-methyl-piperazin-1-yl)-pyridin-3-yl]-pyrido[3,4-b]indole] | > 10000 | < 20
7 | COc1ccc(-c2cc(Cl)cc3c4ccncc4n(CC4(C)COC4)c23)cc1 [Example 52, 6-Chloro-8-(4-methoxy-phenyl)-9-(3-methyl-oxetan-3-ylmethyl)-9H-pyrido[3,4-b]indole] | 1200 | 50 to 80
8 | Nc1ccc(-c2cc(Cl)cc3c4ccncc4n(CC4CC4)c23)c(Cl)n1 [Example 53, 6-Chloro-5-(6-chloro-9-cyclopropylmethyl-9H-pyrido[3,4-b]indol-8-yl)-pyridin-2-ylamine] | 2100 | 50 to 80
9 | CCn1c2cnccc2c2cc(Cl)cc(-c3ccc(Cl)nc3)c21 [Example 54, 6-Chloro-8-(6-chloro-pyridin-3-yl)-9-ethyl-9H-pyrido[3,4-b]indole] | 1100 | 20 to 50
10 | CCn1c2cnccc2c2cc(Cl)cc(-c3cccnc3Cl)c21 [Example 56, 6-Chloro-8-(2-chloro-pyridin-3-yl)-9-ethyl-9H-pyrido[3,4-b]indole] | 460 | 20 to 50
11 | FC(F)(F)Cn1c2cnccc2c2cc(Cl)cc(-c3cccnc3)c21 [Example 57, 6-Chloro-8-pyridin-3-yl-9-(2,2,2-trifluoro-ethyl)-9H-pyrido[3,4-b]indole] | 1600 | < 20
12 | CCn1c2c(-c3cccnc3Cl)cc(Cl)cc2c2ccnc(C)c21 [Example 58, 6-Chloro-8-(2-chloro-pyridin-3-yl)-9-ethyl-1-methyl-9H-pyrido[3,4-b]indole] | 1500 | 20 to 50
13 | CCn1c2c(-c3ccc(Cl)nc3Cl)cc(Cl)cc2c2ccnc(C)c21 [Example 59, 6-Chloro-8-(2,6-dichloro-pyridin-3-yl)-9-ethyl-1-methyl-9H-pyrido[3,4-b]indole] | 1300 | > 80
14 | N#Cc1ccc(-c2cc(Cl)cc3c4ccncc4n(CC(F)(F)F)c23)cn1 [Example 60, 5-[6-Chloro-9-(2,2,2-trifluoro-ethyl)-9H-pyrido[3,4-b]indol-8-yl]-pyridine-2-carbonitrile] | 2500 | 20 to 50
15 | FC(F)(F)Cn1c2cnccc2c2cc(Cl)cc(-c3cnc4ccccc4c3)c21 [Example 61, 6-Chloro-8-quinolin-3-yl-9-(2,2,2-trifluoro-ethyl)-9H-pyrido[3,4-b]indole] | 5600 | > 80
16 | COc1ccc(-c2cc(Cl)cc3c4ccncc4n(CC(F)(F)F)c23)cn1 [Example 62, 6-Chloro-8-(6-methoxy-pyridin-3-yl)-9-(2,2,2-trifluoro-ethyl)-9H-pyrido[3,4-b]indole] | 1200 | > 80
17 | Fc1ccc(-c2cc(Cl)cc3c4ccncc4n(CC(F)(F)F)c23)c(F)n1 [Example 63, 6-Chloro-8-(2,6-difluoro-pyridin-3-yl)-9-(2,2,2-trifluoro-ethyl)-9H-pyrido[3,4-b]indole] | 590 | 20 to 50
18 | Cc1nccc2c1[nH]c1c(-c3ccc(Cl)nc3Cl)cc(Cl)cc12 [Example 64, 6-Chloro-8-(2,6-dichloro-pyridin-3-yl)-1-methyl-9H-pyrido[3,4-b]indole] | 3900 | > 80
19 | Cc1nccc2c1[nH]c1c(-c3cccnc3)cc(Cl)cc12 [Example 65, 6-Chloro-1-methyl-8-pyridin-3-yl-9H-pyrido[3,4-b]indole] | 2300 | 20 to 50
20 | FC(F)(F)Cn1c2cnccc2c2cc(Cl)cc(-c3ccc(Cl)nc3)c21 [Example 66, 6-Chloro-8-(6-chloro-pyridin-3-yl)-9-(2,2,2-trifluoro-ethyl)-9H-pyrido[3,4-b]indole] | 2100 | 50 to 80
21 | CCn1c2cnccc2c2cc(Cl)cc(-c3ccc(C)nc3)c21 [Example 67, 6-Chloro-9-ethyl-8-(6-methyl-pyridin-3-yl)-9H-pyrido[3,4-b]indole] | 740 | 20 to 50
22 | Cc1ccc(-c2cc(Cl)cc3c4ccncc4n(CC(F)(F)F)c23)cn1 [Example 68, 6-Chloro-8-(6-methyl-pyridin-3-yl)-9-(2,2,2-trifluoro-ethyl)-9H-pyrido[3,4-b]indole] | 7600 | 50 to 80
23 | FC(F)(F)Cn1c2cnccc2c2cc(Cl)cc(-c3cnccc3Cl)c21 [Example 69, 6-Chloro-8-(4-chloro-pyridin-3-yl)-9-(2,2,2-trifluoro-ethyl)-9H-pyrido[3,4-b]indole] | 2000 | 50 to 80
24 | CCn1c2cnccc2c2cc(Cl)cc(-c3ccc(OC)nc3)c21 [Example 70, 6-Chloro-9-ethyl-8-(6-methoxy-pyridin-3-yl)-9H-pyrido[3,4-b]indole] | 570 | > 80
25 | FC(F)(F)Cn1c2cnccc2c2cc(Cl)cc(-c3cnc4[nH]ccc4c3)c21 [Example 71, 6-Chloro-8-(1H-pyrrolo[2,3-b]pyridin-5-yl)-9-(2,2,2-trifluoro-ethyl)-9H-pyrido[3,4-b]indole] | 1500 | < 20
26 | COc1ccc(-c2cc(Cl)cc3c2[nH]c2cnccc23)cn1 [Example 72, 6-Chloro-8-(6-methoxy-pyridin-3-yl)-9H-pyrido[3,4-b]indole] | 5800 | 20 to 50
27 | Clc1cc(-c2ccc(Cl)nc2)c2[nH]c3cnccc3c2c1 [Example 73, 6-Chloro-8-(6-chloro-pyridin-3-yl)-9H-pyrido[3,4-b]indole] | 440 | 20 to 50
28 | Clc1cc(-c2ccc(Cl)nc2Cl)c2[nH]c3cnccc3c2c1 [Example 74, 6-Chloro-8-(2,6-dichloro-pyridin-3-yl)-9H-pyrido[3,4-b]indole] | 920 | 20 to 50
29 | FC(F)(F)Cn1c2cnccc2c2cc(Cl)cc(-c3csc(Cl)c3)c21 [Example 76, 6-Chloro-8-(5-chloro-thiophen-3-yl)-9-(2,2,2-trifluoro-ethyl)-9H-pyrido[3,4-b]indole] |  | 20 to 50
